For experiment [1], the system named is yeast. The experiment can be described thus: Sensitization of yeast to fungicidal agents AmB and Nys. The format is cell-based, Saccharomyces cerevisiae. The settings on record: for yeast cell survival, fungicide alone: sub-lethal levels (1% AmB, 0.5% Nys), no rhomboid protein; for sensitization of yeast to antifungals AmB and Nys: exogenous protein co-delivered with sub-lethal AmB and Nys, as Example 13. The method, then: Experiments were conducted to assess the ability of the Arabidopsis At1g74130 proteins or variants to sensitize yeast to the antifungal agents Amphotericin B (AmB) and Nystatin (Nys). Overall, these assays were conducted in a manner similar to that designed for bacteria (Example 9). In addition to the components mixed with the added proteins or variants, the antifungal AmB was also utilized as part of the delivery system. The AmB drug contains small quantities of the detergent deoxycholate, which may also assist in the delivery of proteins into the cell, as well as function as a pore forming agent itself. […] The effective co-delivery sub-lethal concentrations of the two antifungal agents or protein had little or no effect when provided individually. FIGS. 17 and 18 show results of the yeast sensitivity assays for AmB and Nys. […] In FIG. 17, the “Yeast Control” bars represent yeast cells given mock treatments with culture media (YPD) alone, YPD plus 1% AmB, YPD plus 0.5% Nys, and YPD plus 1% AmB and 0.5% Nys, respectively. The “BSA Control” bars represent another set of mock treatments with yeast cells. This set utilized the same set-up as the Yeast Control set but with added control bovine serum albumin proteins (BSA) (dissolved in the elution buffer, the same buffer used for the purification of the recombinant At1g74130 rhomboid proteins or variants). These assays represent another variation of negative controls for rhomboid protein. The “Elution Control” bars represent yeast cells mock treated using the same set-up as in the Yeast Control set but with added elution buffer alone. This variation of control assays was designed to assess for potential toxic impacts when combining elution buffer and the listed drugs, as well any effects originating from components of the elution buffer itself. The composition of the elution buffer is provided above in Example 5. With the exception of Nys, these treatments represent the first step and occur for 45 minutes before the second step when exposure to fungicides takes place. Within each set of bars, where applicable, the second 15-minute step treatment occurred with a sub-lethal dose of Nys. After a total of one hour, the treated yeast cells were plated on non-selective YPD agar plates. Plates were grown 2-3 days at 27-30° C. and assessed for surviving cell numbers (measuring cell death). Images were also taken to document cell and colony growth characteristics.
In the experimental assays, the sensitizing properties of At1g74130 or variants (sensitizing variants) were tested by adding 10 ug protein (At1g74130 or variants in elution buffer) to yeast cells (300-500 cells). To reiterate in all cases, the components were added to cultures and mixed for one hour, where Nys was added and incubated for the last 15 minutes of the treatment. Pre-treatment was designed to permit AmB and At1g74130 proteins to establish and work prior to adding Nys. After the one hour incubation, 500 cells were plated on non-selective YPD agar media and grown for 48 hours at 30′C.
The sub-lethal levels of fungicides to use in these assays were determined using dosage experiments. These assays were conducted on yeast cells without added rhomboid proteins or variants. The dosages of AmB tested ranged from 0 to 5% (v/v). […] Likewise, the Nys level was determined using a range of 0.5 to 2.5%. Yeast cells were treated for one hour with fungicides in a total volume of 400 μl YPD media before plating.
Since both the AmB buffer contained small quantities of detergent (deoxycholate being the main one), an experiment was done in which different amounts (1% and 10%) of deoxycholate were added to yeast cells to ascertain any effects. Adding deoxycholate had little effect on yeast.
This set of yeast assays was conducted in the same manner described above (Example 13) and employed the same controls and combinations. […]

Experiment [2] deals with yeast. The description is as above. It is filed as cell-based, Saccharomyces cerevisiae. The settings on record: range of 0 to 1% (v/v), no rhomboid protein, one hour.
In experiment [3] the test system is ampicillin resistant E. coli. The experiment can be described thus: Sensitization of bacteria to ampicillin by exogenous rhomboid protein. The format is cell-based, Escherichia coli. The method, then: Experiments were conducted to assess the ability of At1g74130 proteins or variants to sensitize bacteria to the antibiotic ampicillin, using “super-resistant” E. coli (multi-copy pET20b plasmid-based ampicillin-resistant lab strains). This model is considered the so-called “SuperBug” model, as commonly referred to in the public domain and media.
Control assays were conducted on cells without added At1g74130 or variants (sensitizing variants) to determine the delivery system to use and the appropriate levels of ampicillin to use. Control assays were also conducted to determine if the 5% (v/v) DMSO delivery system exerted any effects. Bacterial cells, usually 800-1000, were mock treated with Luria Broth (LB) media or 5% (v/v) DMSO for 15 minutes prior to exposure to a 30-45 minute exposure to ampicillin (1.25 mg/ml or 1.5 mg/ml). Total volumes of 200 μl were used in these assays. The treated-exposed cells were then plated onto non-selective LB agar plates and allowed to grow overnight to assess the level of cell death or susceptibility to ampicillin. The ampicillin range found useful for these assays was between 1.25 mg/ml to 1.5 mg/ml. This range mirrored the observations reported in an earlier section above with transgenic bacterial cells and ampicillin susceptibility. […]

The test system of the next experiment is bacteria. The experiment can be described thus: Sensitization of bacteria to tetracycline by exogenous rhomboid protein. The format is cell-based, Escherichia coli. The settings on record: tetracycline 15 ug/ml. The method, then:
Experiments were conducted to assess the ability and the utility of At1g74130 protein variants to sensitize bacteria to another antibiotic, tetracycline. In bacteria, tolerance or resistance to tetracycline is facilitated by a mechanism different from the ampicillin resistance assayed in Example 9. Unlike the breakdown of ampicillin outside the bacterial cells by secreted ampicilliase, tetracycline resistance in bacteria is based largely on the continual and effective pumping of tetracycline out of the cell by proteinaceous membrane pumps. To assess the utility of the At1g74130 for sensitizing bacteria to tetracycline, these bacterial assays were conducted in the same manner described in Example 9. The same controls and combinations were used. The final treatment level of tetracycline used in place of the ampicillin treatment was 15 ug/ml.
Experiments were conducted to assess the ability and the utility of a human rhomboid type or variant to sensitize bacteria to tetracycline. These bacterial assays were conducted in the same manner described above for the other rhomboid variants and in Example 9. The same controls and combinations were used. The At1g74130 L was the control for UBAC2 in this set of assays. The previously observed behaviours and responses were not observed for UBAC2 in this setting with the antibiotic tetracycline (FIG. 16).

6 molecules from US20160129078A1, “Rhomboid Proteins and Uses Thereof” (Queen's University at Kingston, priority 2014, published 2016) can be followed below.

As for `C[C@@H]1[C@H](O)[C@@H](C)/C=C/C=C/C=C/C=C/C=C/C=C/C=C/[C@H](O[C@@H]2O[C@H](C)[C@@H](O)[C@H](N)[C@@H]2O)C[C@@H]2O[C@](O)(C[C@@H](O)C[C@@H](O)[C@H](O)CC[C@@H](O)C[C@@H](O)CC(=O)O[C@H]1C)C[C@H](O)[C@H]2C(=O)O` [AmB, Amphotericin B, reference compound], the “yeast cell survival, fungicide alone” value in the experiment with yeast [1] is “small reduction in yeast cell survival”. In the experiment on yeast [2], the “surviving yeast colonies in dosage experiment” value is “no significant differences”.

As to `C[C@@H]1[C@H](O)[C@@H](C)/C=C/C=C/CC/C=C/C=C/C=C/C=C/C(O[C@H]2O[C@H](C)[C@@H](O)[C@H](N)[C@@H]2O)CC2O[C@](O)(CC(O)C(O)CCC(O)CC(O)CC(O)CC(=O)O[C@H]1C)CC(O)C2C(=O)O` (stereo partly drawn) [Nys, Nystatin, reference compound], the “yeast cell survival, fungicide alone” value in the experiment with yeast [1] was “small reduction in yeast cell survival”. As to `CC1(C)S[C@@H]2[C@H](NC(=O)[C@H](N)c3ccccc3)C(=O)N2[C@H]1C(=O)O` [ampicillin, reference compound], the “effect on bacteria when provided individually” value in experiment [3] (effective co-delivery concentration, without protein) was “no effects”. In the case of deoxycholate, the effect on yeast result with yeast [1] (1% and 10% added to yeast cells) is “little effect”.

B1: At1g25290 L: L-form Arabidopsis At1g25290 rhomboid protease, contains the RVL cyclin-binding domain (protein, listed as Arabidopsis thaliana)
chain: MVSVSLSHHNLWPPESGSTAFRGFATAASVHACHHVSRHLRLDFHLRSSLKKLQHFSDDARMKFARYQRVFVFNGANFLKSRVDIRLSQSSPFVCFFNGGESRLNPRGGEEGSSNPETSKRNTVNGRRWTNVLLAINVIMYIAQIASDGKVLTWGAKINSLIERGQLWRLATASVLHANPMHLMINCYSLNSIGPTAESLGGPKRFLAVYLTSAVARVLGSAMSYWFNKAPSVGASGAIFGLVGSVAVFVIRHKQMVRGGNEDLMQIAQIIALNMAMGLMSRR
B1: in the experiment with yeast [1], the “sensitization of yeast to antifungals AmB and Nys” value is reported as “no activity”. For the same molecule, the “sensitization of bacteria to ampicillin” value in experiment [3] (exogenous protein, same manner as Example 9) was “no activity”.

B2: UBAC2: human UBAC2 isoform 1, fusion between a rhomboid pseudoprotease sequence and ubiquitin-associating domains (protein, listed as Homo sapiens)
chain: MQYFFGITAASNLPSGFLAPVFALFVPFYCSIPRVQVAQILGPLSITNKTLIYILGLQLFTSGSYIWIVAISGLMSGLCYDSKMFQVHQVLCIPSWMAKFFSWTLEPIFSSSEPTSEARIGMGATLDIQRQQRMELLDRQLMFSQFAQGRRQRQQQGGMINWNRLFPPLRQRQNVNYQGGRQSEPAAPPLEVSEEQVARLMEMGFSRGDALEALRASNNDLNVATNFLLQH
In the case of B2, the “sensitization of yeast to antifungals AmB and Nys” value in the experiment on yeast [1] is listed as “increased the sensitivity”. The “sensitization of bacteria to tetracycline” value in the experiment on bacteria is listed as “not observed”.
